Test results: PubChem BioAssay AID248 (DTP/NCI, 2004)
Several values for one entry are separate records, joined by “and”; a condition that tells them apart may be missing. Identical values can stand only once. Toxic doses and inconclusive results are not listed. No stated cut-off is given here; in the data, active means T/C of 150% or more; inactive means T/C below 125%.

Test system: L1210 leukemia ip in BDF1 mice, survival T/C
Experiment: NCI In Vivo Anticancer Drug Screen. Data for tumor model L1210 Leukemia (intraperitoneal) in B6D2F1 (BDF1) mice
Settings: endpoint: mean survival time, higher = longer survival
Outline: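 Read-out is survival time, reported as the treated-group measurement over the vehicle-control measurement.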

[1] = dose: 100.0 mg/kg/injection, schedule: Q01DX009 (ip), vehicle: saline sonified
[2] = dose: 200.0 mg/kg/injection, schedule: Q01DX009 (ip), vehicle: saline sonified
[3] = dose: 100.0 mg/kg/injection, schedule: Q04DX003 (ip), vehicle: saline
[4] = dose: 200.0 mg/kg/injection, schedule: Q04DX003 (ip), vehicle: saline
[5] = dose: 400.0 mg/kg/injection, schedule: Q04DX003 (ip), vehicle: saline
[6] = dose: 100.0 mg/kg/injection, schedule: Q01DX001 (ip), vehicle: saline
[7] = dose: 200.0 mg/kg/injection, schedule: Q01DX001 (ip), vehicle: saline
[8] = dose: 50.0 mg/kg/injection, schedule: Q01DX009 (ip), vehicle: saline with Tween-80
[9] = dose: 100.0 mg/kg/injection, schedule: Q01DX009 (ip), vehicle: saline with Tween-80
[10] = dose: 200.0 mg/kg/injection, schedule: Q01DX009 (ip), vehicle: saline with Tween-80
[11] = dose: 100.0 mg/kg/injection, schedule: Q01DX009 (ip), vehicle: Klucel (hydroxypropylcellulose) (HPC)
[12] = dose: 100.0 mg/kg/injection, schedule: Q04DX003 (ip), vehicle: Klucel (hydroxypropylcellulose) (HPC)
[13] = dose: 200.0 mg/kg/injection, schedule: Q01DX009 (ip), vehicle: Klucel (hydroxypropylcellulose) (HPC)
[14] = dose: 200.0 mg/kg/injection, schedule: Q04DX003 (ip), vehicle: Klucel (hydroxypropylcellulose) (HPC)
[15] = dose: 100.0 mg/kg/injection, schedule: Q01DX009 (ip), vehicle: saline
[16] = dose: 400.0 mg/kg/injection, schedule: Q01DX009 (ip), vehicle: Klucel (hydroxypropylcellulose) (HPC)
[17] = dose: 100.0 mg/kg/injection, schedule: Q01DX001 (ip), vehicle: carboxymethylcellulose (CMC)
[18] = dose: 200.0 mg/kg/injection, schedule: Q01DX001 (ip), vehicle: carboxymethylcellulose (CMC)
[19] = dose: 400.0 mg/kg/injection, schedule: Q01DX001 (ip), vehicle: carboxymethylcellulose (CMC)
[20] = dose: 400.0 mg/kg/injection, schedule: Q01DX001 (ip), vehicle: saline
[21] = dose: 400.0 mg/kg/injection, schedule: Q04DX003 (ip), vehicle: Klucel (hydroxypropylcellulose) (HPC)
[22] = dose: 50.0 mg/kg/injection, schedule: Q01DX001 (ip), vehicle: saline
[23] = dose: 50.0 mg/kg/injection, schedule: Q01DX009 (ip), vehicle: saline
[24] = dose: 25.0 mg/kg/injection, schedule: Q01DX009 (ip), vehicle: saline
[25] = dose: 25.0 mg/kg/injection, schedule: Q04DX003 (ip), vehicle: saline
[26] = dose: 50.0 mg/kg/injection, schedule: Q04DX003 (ip), vehicle: saline
[27] = dose: 100.0 mg/kg/injection, schedule: Q04DX002 (ip), vehicle: Klucel (hydroxypropylcellulose) (HPC)
[28] = dose: 200.0 mg/kg/injection, schedule: Q04DX002 (ip), vehicle: Klucel (hydroxypropylcellulose) (HPC)
[29] = dose: 400.0 mg/kg/injection, schedule: Q04DX002 (ip), vehicle: Klucel (hydroxypropylcellulose) (HPC)

Measured: T/C

Cc1ccc(C(=O)NN2C(N)=NC(N)=NC2(C)C)cc1
inactive: [1] 111 % of control | [2] 92 % of control

Cn1cc(Cl)nc1CO
inactive: [1] 91 % of control | [3] 91 % of control | [2] 102 % of control | [4] 107 % of control | dose: 400.0 mg/kg/injection, schedule: Q01DX009 (ip), vehicle: saline sonified 93 % of control | [5] 102 % of control

CSc1n[nH]c(=O)nc1SC
inactive: [6] 104 % of control | [7] 96 % of control

O=S(=O)(c1ccccc1)c1cccs1
inactive: [8] 101 % of control | [9] 96 % of control | [10] 105 % of control

NC(=O)C1CCC1C(N)=O (stereo not drawn)
inactive: [9] 108 % of control | [10] 101 % of control | dose: 400.0 mg/kg/injection, schedule: Q01DX009 (ip), vehicle: saline with Tween-80 103 % of control

CCc1csc(=S)[nH]1
inactive: dose: 50.0 mg/kg/injection, schedule: Q01DX009 (ip), vehicle: Klucel (hydroxypropylcellulose) (HPC) 98 % of control | [11] 93 % of control | [12] 98 % of control | [13] 96 % of control | [14] 98 % of control

O=c1cc(CCl)occ1O
inactive: dose: 50.0 mg/kg/injection, schedule: Q04DX003 (ip), vehicle: Klucel (hydroxypropylcellulose) (HPC) 95 % of control | [12] 98 % of control | [14] 97 % of control

Cn1cnc2c1c(=O)[nH]c(=O)n2C
inactive: [11] 93 % of control | [15] 95 % of control | [13] 86 % of control | dose: 200.0 mg/kg/injection, schedule: Q01DX009 (ip), vehicle: saline 92 % of control | [16] 89 % of control

CN(Cc1ccc([N+](=O)[O-])cc1)C(=O)Nc1ccc(S(=O)(=O)F)cc1
inactive: [3] 98 % of control | [4] 101 % of control | [5] 104 % of control

O=[N+]([O-])c1cccc(C[n+]2ccccc2C2OCCO2)c1
inactive: dose: 35.0 mg/kg/injection, schedule: Q01DX009 (ip), vehicle: saline 95 % of control

COC(=O)c1ccc(OC(=O)Nc2ccccc2F)cc1
inactive: dose: 25.0 mg/kg/injection, schedule: Q01DX009 (ip), vehicle: saline with Tween-80 106 % of control | [8] 119 % of control | [9] 95 % of control and 108 % of control

CC1C(=O)CC(c2ccccc2)N(C)C1c1ccccc1 (stereo not drawn)
inactive: dose: 75.0 mg/kg/injection, schedule: Q01DX001 (ip), vehicle: saline 96 % of control | dose: 75.0 mg/kg/injection, schedule: Q04DX003 (ip), vehicle: acetone 93 % of control | dose: 150.0 mg/kg/injection, schedule: Q01DX001 (ip), vehicle: saline 91 % of control | dose: 150.0 mg/kg/injection, schedule: Q04DX003 (ip), vehicle: acetone 98 % of control | dose: 300.0 mg/kg/injection, schedule: Q01DX001 (ip), vehicle: saline 100 % of control | dose: 300.0 mg/kg/injection, schedule: Q04DX003 (ip), vehicle: acetone 96 % of control

N#CCCN(NC(=O)OCc1ccccc1)C(=O)OCc1ccccc1
inactive: [17] 95 % of control | [18] 89 % of control | [19] 95 % of control

NC(=S)N/N=C\c1csc2ccccc12
inactive: [17] 92 % of control | [6] 96 % of control | [18] 92 % of control | [7] 107 % of control | [19] 95 % of control | [20] 94 % of control

CCCCCCCCNc1cc2c3c(c1)CCCN3CCC2
inactive: dose: 0.78 mg/kg/injection, schedule: Q01DX009 (ip), vehicle: alcohol 110 % of control | dose: 1.56 mg/kg/injection, schedule: Q01DX009 (ip), vehicle: alcohol 102 % of control | dose: 1.56 mg/kg/injection, schedule: Q04DX003 (ip), vehicle: alcohol 102 % of control | dose: 3.12 mg/kg/injection, schedule: Q01DX009 (ip), vehicle: alcohol 113 % of control | dose: 3.12 mg/kg/injection, schedule: Q04DX003 (ip), vehicle: alcohol 108 % of control | dose: 6.25 mg/kg/injection, schedule: Q04DX003 (ip), vehicle: alcohol 97 % of control | dose: 25.0 mg/kg/injection, schedule: Q04DX003 (ip), vehicle: alcohol 88 % of control

COC1CCC(NC(=O)NCCCl)CC1 (stereo not drawn)
inactive: dose: 100.0 mg/kg/injection, schedule: Q01DX001 (ip), vehicle: Klucel (hydroxypropylcellulose) (HPC) 95 % of control | [12] 103 % of control | dose: 200.0 mg/kg/injection, schedule: Q01DX001 (ip), vehicle: Klucel (hydroxypropylcellulose) (HPC) 102 % of control | [14] 97 % of control | dose: 400.0 mg/kg/injection, schedule: Q01DX001 (ip), vehicle: Klucel (hydroxypropylcellulose) (HPC) 95 % of control | [21] 97 % of control

OCC(O)C(O)C(O)C(c1ccccc1)c1ccccc1 (stereo not drawn)
inactive: [22] 107 % of control | [6] 98 % of control | [7] 96 % of control | [20] 98 % of control

COc1ccc(CC[N+]2=Cc3cc(OC)c(OC)cc3CC2)cc1OC
inactive: [23] 97 % of control | [15] 105 % of control | [3] 97 % of control | [4] 101 % of control

C=CCNC(=S)Nc1ccc(OC(=O)NC(C)(C)C)cc1
inactive: [11] 94 % of control | [13] 95 % of control | [16] 89 % of control

COc1cc2c(cc1OC)C(C)=NCC2
inactive: dose: 12.0 mg/kg/injection, schedule: Q01DX009 (ip), vehicle: saline 103 % of control | [24] 94 % of control | [25] 105 % of control | [22] 114 % of control | [23] 110 % of control | [26] 105 % of control | [6] 104 % of control | [3] 102 % of control

O=C(O)C(Nc1ccc(Cc2ccc(NC(C(=O)O)c3ccccc3)cc2)cc1)c1ccccc1 (stereo not drawn)
inactive: [27] 100 % of control | [28] 103 % of control | [29] 92 % of control

O=C(Nc1ccccc1Cl)Oc1ccc(-c2ccccc2)cc1Br
inactive: [11] 102 % of control | [12] 94 % of control | [13] 96 % of control | [14] 96 % of control | [16] 104 % of control | [21] 102 % of control

CCc1ccccc1OC(=O)Nc1ccccc1C
inactive: [27] 95 % of control | [28] 100 % of control | [29] 95 % of control

CCN(CC)CC(=O)NC(CCN(C)C)c1cccc2ccccc12 (stereo not drawn)
inactive: dose: 25.0 mg/kg/injection, schedule: Q04DX002 (ip), vehicle: saline 103 % of control | dose: 50.0 mg/kg/injection, schedule: Q04DX002 (ip), vehicle: saline 103 % of control | dose: 100.0 mg/kg/injection, schedule: Q04DX002 (ip), vehicle: saline 98 % of control

COC(CC(=O)N1Cc2cc3ccccc3nc2/C1=C/c1ccco1)OC
inactive: dose: 100.0 mg/kg/injection, schedule: Q04DX003 (ip), vehicle: saline with Tween-80 104 % of control | dose: 200.0 mg/kg/injection, schedule: Q04DX003 (ip), vehicle: saline with Tween-80 96 % of control | dose: 400.0 mg/kg/injection, schedule: Q04DX003 (ip), vehicle: saline with Tween-80 98 % of control

O=S1(=O)CCCCO1
inactive: [24] 97 % of control | [25] 102 % of control | [23] 101 % of control | [26] 102 % of control | [15] 89 % of control | [3] 98 % of control

CCc1ncc(C(C)(O)c2ccc(Cl)cc2)n1Cc1ccccc1 (stereo not drawn)
inactive: [12] 94 % of control | [14] 92 % of control | [21] 89 % of control

O=C(Nc1ccccc1)Oc1ccc(Cl)cc1Cl
inactive: [27] 104 % of control | [28] 110 % of control | [29] 96 % of control
